According to ChEMBL document CHEMBL5537143, “Synthesis and antimicrobial properties of guanidine-functionalized labdane type diterpenoids” (Eur J Med Chem, 2024):
Converted amounts (≈) assume the structure as drawn.

Assays:
Format in all cases: functional
Staphylococcus aureus [1] = experiment: Antimicrobial activity against Staphylococcus aureus 29213 assessed as inhibition of microbial growth incubated for 24 hrs by broth-microdilution assay
Staphylococcus aureus [2] = experiment: Antimicrobial activity against methicillin resistant Staphylococcus aureus 43300 assessed as inhibition of microbial growth incubated for 24 hrs by broth-microdilution assay; details: read-out: MIC
[3] = tested on: Staphylococcus epidermidis; experiment: Antimicrobial activity against Staphylococcus epidermidis ATCC 12228 assessed as inhibition of microbial growth incubated for 24 hrs by broth-microdilution assay; details: for MIC: Staphylococcus epidermidis
[4] = tested on: Staphylococcus epidermidis; experiment: Antimicrobial activity against Staphylococcus epidermidis ATCC 35984 assessed as inhibition of microbial growth incubated for 24 hrs by broth-microdilution assay; details: for MIC: Staphylococcus epidermidis
Candida albicans [5] = experiment: Antifungal activity against Candida albicans ATCC 90028 assessed as reduction in fungal growth incubated for 48 hrs by CLSI based analysis
Klebsiella pneumoniae [6] = experiment: Antimicrobial activity against Klebsiella pneumoniae ATCC 13883 assessed as inhibition of microbial growth incubated for 24 hrs by broth-microdilution assay; details: read-out: MIC100
Klebsiella pneumoniae [7] = experiment: Antimicrobial activity against Klebsiella pneumoniae ATCC BAA1705 assessed as inhibition of microbial growth incubated for 24 hrs by broth-microdilution assay; details: read-out: MIC100
Staphylococcus aureus [8] = experiment: Antimicrobial activity against Staphylococcus aureus ATCC 29213 assessed as inhibition of microbial growth incubated for 24 hrs by broth-microdilution assay
Staphylococcus aureus [9] = experiment: Antimicrobial activity against Staphylococcus aureus ATCC 43300 assessed as inhibition of microbial growth incubated for 24 hrs by broth-microdilution assay
Pseudomonas aeruginosa [10] = experiment: Antimicrobial activity against Pseudomonas aeruginosa ATCC 27853 assessed as inhibition of microbial growth incubated for 24 hrs by broth-microdilution assay; details: Pseudomonas aeruginosa, ATCC 27853, read-out: MIC100
Pseudomonas aeruginosa [11] = experiment: Antimicrobial activity against Pseudomonas aeruginosa PAO1 assessed as inhibition of microbial growth incubated for 24 hrs by broth-microdilution assay; details: Pseudomonas aeruginosa, PAO1, read-out: MIC100
Candida albicans [12] = experiment: Antifungal activity against Candida albicans ATCC 10231 assessed as reduction in fungal growth incubated for 48 hrs by CLSI based analysis; details: read-out: MIC100

MIC ([3]; ATCC 12228, read-out: MIC100) [µg/mL] | MIC ([4]; ATCC 35984, read-out: MIC100) [µg/mL] | MIC (Klebsiella pneumoniae [6]) [µg/mL] | MIC (Klebsiella pneumoniae [7]) [µg/mL] | MIC (Candida albicans [5]; read-out: MIC100) [µg/mL] | MIC (Staphylococcus aureus [8]; Staphylococcus aureus, ATCC 29213, read-out: MIC100) [µg/mL] | MIC (Staphylococcus aureus [9]; Staphylococcus aureus, ATCC 43300, read-out: MIC100) [µg/mL] | MIC (Pseudomonas aeruginosa [10]) [µg/mL] | MIC (Pseudomonas aeruginosa [11]) [µg/mL] | MIC (Candida albicans [12]) [µg/mL] | MIC70 [3] [µg/mL] | MIC70 [4] [µg/mL] | MIC70 (Staphylococcus aureus [8]) [µg/mL] | MIC70 (Staphylococcus aureus [9]) [µg/mL] | SMILES | MIC (Staphylococcus aureus [1]) [µg/mL] | MIC (Staphylococcus aureus [2]) [µg/mL] | MIC ([3]; ATCC 12228, read-out: MIC) [µg/mL] | MIC ([4]; ATCC 35984, read-out: MIC) [µg/mL] | MIC (Candida albicans [5]; read-out: MIC) [µg/mL]
– | – | – | – | – | – | – | – | – | – | – | – | – | – | CC1=C(CC/C=C(/C)C(=O)NC(=N)N)[C@@]2(C)CCCC(C)(C)[C@@H]2CC1 | 4 | 4 | 4 | 4 | 8 (≈ 23.2 µM)
128 | 128 | > 128 | > 128 | > 128 | > 128 | > 128 | > 128 | > 128 | > 128 | – | – | – | – | CC1(C)CCC[C@]2(C)[C@H]3CC[C@@](C)(CC(=O)O)O[C@]3(C)CC[C@@H]12 | – | – | – | – | –
– | – | > 128 | > 128 | > 128 | – | – | > 128 | > 128 | > 128 | 64 | 64 | 64 | 64 | CC1(C)CCC[C@]2(C)[C@H]3CC[C@](C)(CC(=O)O)O[C@]3(C)CC[C@@H]12 | – | – | – | – | –
